US20250206708A1, “AN OXAZIRIDINE PLATFORM FOR TARGETING FUNCTIONAL ALLOSTERIC METHIONINE SITES” (Novartis AG, priority 2022, published 2025)

Columns and labels:
CDK1 = CDK1 (Homo sapiens, UniProt P06493); assay: Gel-based ABPP, isoform specificity on CDK1; type: binding; details: dose-dependent treatment
Experimental: Activity-based protein profiling (ABPP) was performed as follows. CDK4 was diluted in PBS to 50 nM, then 50 μL was added to each well of a 96-well PCR plate. Ligands were dissolved fresh in DMSO to 5 μM, and 1 μL was added so each well contained a unique ligand at the indicated concentration. Wells were mixed and allowed to incubate 1 h at 23° C. Ligands were then chased with fresh Compound 301 with 1 μL of 5 μM added to each well (100 nM final), wells mixed and allowed to incubate 1 h at 23° C. Excess oxaziridine was quenched with N-acetyl methionine via addition of 1 μL of 10 mM DMSO stock (200 μM final), wells mixed and allowed to incubate 1 h at 23° C. A stock was prepared 1:5 of 12.5 μM DBCO-Cy3 in DMSO: 1.2% SDS/PBS. To each well was added 6 μL of this stock, the wells mixed and allowed to incubate overnight protected from light at 23° C. The next morning 30 μL of 4×Laemmli's buffer containing 10% BME was added to each well. The plate was sealed and brought to 95° C. for 6 min. Samples were loaded and separated on precast 4-20% TGX gels and scanned by ChemiDoc MP for measuring in-gel fluorescence. After that, the total protein level on the gel was assayed by silver staining according to the manufacturer's protocol and scanned by ChemiDoc MP.
The isoform specificity was tested with two closely-related congeners, CDK1 and CDK6.

CDK4 = CDK4 (Homo sapiens, UniProt P11802); assay: Shotgun proteomics (MS/MS) site of modification on CDK4; type: binding; details: 50 μM oxaziridine, 30 min, 23° C.
CDK4, sequence (P11802 whole entry): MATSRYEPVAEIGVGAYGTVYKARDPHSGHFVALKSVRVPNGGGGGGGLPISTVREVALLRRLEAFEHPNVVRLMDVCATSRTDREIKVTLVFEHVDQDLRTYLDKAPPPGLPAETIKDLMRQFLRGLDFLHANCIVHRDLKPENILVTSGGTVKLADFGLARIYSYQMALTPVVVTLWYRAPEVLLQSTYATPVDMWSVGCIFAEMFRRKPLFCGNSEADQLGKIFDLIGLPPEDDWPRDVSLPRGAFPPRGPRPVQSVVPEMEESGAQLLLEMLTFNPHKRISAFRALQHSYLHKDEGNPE
CDK4, sequence (P24385 whole entry partner): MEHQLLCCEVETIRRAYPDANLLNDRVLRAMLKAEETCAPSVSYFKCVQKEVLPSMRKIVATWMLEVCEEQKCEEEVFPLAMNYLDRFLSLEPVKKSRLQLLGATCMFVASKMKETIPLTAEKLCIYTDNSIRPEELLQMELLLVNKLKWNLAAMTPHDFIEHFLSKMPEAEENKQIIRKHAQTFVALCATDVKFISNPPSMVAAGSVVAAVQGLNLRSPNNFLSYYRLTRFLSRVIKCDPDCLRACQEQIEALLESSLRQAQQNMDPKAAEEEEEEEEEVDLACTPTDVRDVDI
Experimental: To more accurately assess residue reactivity of oxaziridines on CDK4, 10 μg of CDK4 was diluted with 90 μg whole cell extract derived from mouse liver to a total volume of 100 μL in PBS. Protein mixture was treated with 50 μM oxaziridine (DMSO) and allowed to incubate at 23° C. for 30 min. Labeled protein was precipitated via addition of 900 μL MeOH at −80° C. overnight. The next day, sample was spun at max speed at 4° C. for 10 min. The pellet was gently washed 3 times with a solution of ice cold MeOH. The supernatant was then removed, and the pellet resuspended in 30 μL freshly prepared 8 M urea/PBS. A 5× stock of ProteaseMAX (Promega; cat no. V2071) was prepared by dissolved the pellet in 100 μL ammonium bicarbonate. To the protein mixture was added 30 μL 1×ProteaseMAX, 40 μL ammonium bicarbonate, and 10 μL of 110 mM freshly prepared TCEP (Pierce; cat no. 20490). […]
Peptides from all experiments were analyzed on a Q Exactive Plus mass spectrometer (Thermo Fisher Scientific); pure proteins were analyzed on a C18 only column, while complex proteomes were analyzed via a five step Multidimensional Protein Identification Technology (MudPIT).^7 In both cases, Inlines (IDEX; cat no.M-520) were fitted with ˜20 cm of 250 μm tubing and prepacked with 4 cm of Aqua C18 reverse-phase resin (Phenomenex; cat no. 04A-4299). […]
Data were analyzed with Byologic (Protein Metrics Inc.). […]

CDK1, sequence (P06493 whole entry, canonical isoform): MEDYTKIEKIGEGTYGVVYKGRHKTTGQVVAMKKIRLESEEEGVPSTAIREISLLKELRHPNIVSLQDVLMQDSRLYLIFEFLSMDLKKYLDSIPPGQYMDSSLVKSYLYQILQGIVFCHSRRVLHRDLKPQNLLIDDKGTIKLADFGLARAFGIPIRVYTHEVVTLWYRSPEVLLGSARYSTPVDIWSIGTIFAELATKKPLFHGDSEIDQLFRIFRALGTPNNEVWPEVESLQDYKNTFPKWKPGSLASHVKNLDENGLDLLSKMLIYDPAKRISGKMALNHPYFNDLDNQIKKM

Q: What does the source list for `O=C(N1CC2COCC2C1)N1OC1c1ccccc1` (centres unmarked) [Compound 148]?
A: labeling against CDK1 by gel analysis (CDK1): no dose-dependent labeling; site(s) of modification on CDK4 (CDK4): M169, with minor labeling at M264
